Activity calls are given as the source filed them.
Key:
[1] = biological target: Uncharacterized aarF domain-containing protein kinase 5 (Homo sapiens, UniProt Q3MIX3)
[2] = biological target: Serine/threonine-protein kinase ATR (Homo sapiens, UniProt Q13535)
[3] = biological target: Serine/threonine-protein kinase B-raf (Homo sapiens, UniProt P15056)
[4] = biological target: T1, Cysteine--tRNA ligase, cytoplasmic (Homo sapiens, UniProt P49589)
T1 sequence (P49589 whole entry): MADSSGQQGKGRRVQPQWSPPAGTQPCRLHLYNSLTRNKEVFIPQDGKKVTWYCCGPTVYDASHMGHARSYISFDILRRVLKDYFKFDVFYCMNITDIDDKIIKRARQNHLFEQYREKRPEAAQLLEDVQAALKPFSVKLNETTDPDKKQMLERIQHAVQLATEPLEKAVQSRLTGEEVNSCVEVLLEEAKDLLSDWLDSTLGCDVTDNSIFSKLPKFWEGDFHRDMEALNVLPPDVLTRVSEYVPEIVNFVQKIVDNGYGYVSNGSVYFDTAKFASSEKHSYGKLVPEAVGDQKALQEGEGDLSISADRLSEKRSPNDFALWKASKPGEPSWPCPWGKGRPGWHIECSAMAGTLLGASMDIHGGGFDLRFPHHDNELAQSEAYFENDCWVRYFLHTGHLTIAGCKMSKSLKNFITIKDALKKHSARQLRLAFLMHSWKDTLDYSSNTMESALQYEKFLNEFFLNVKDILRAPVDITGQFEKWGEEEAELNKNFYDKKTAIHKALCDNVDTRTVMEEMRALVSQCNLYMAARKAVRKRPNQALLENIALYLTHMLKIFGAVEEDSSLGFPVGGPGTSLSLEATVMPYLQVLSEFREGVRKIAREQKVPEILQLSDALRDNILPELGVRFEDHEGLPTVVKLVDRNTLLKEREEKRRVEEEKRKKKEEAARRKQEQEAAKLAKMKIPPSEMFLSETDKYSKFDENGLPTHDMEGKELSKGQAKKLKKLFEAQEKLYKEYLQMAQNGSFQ

[5] = biological target: T2, Tyrosine-protein kinase Mer (Homo sapiens, UniProt Q12866)
T2 sequence (Q12866 whole entry): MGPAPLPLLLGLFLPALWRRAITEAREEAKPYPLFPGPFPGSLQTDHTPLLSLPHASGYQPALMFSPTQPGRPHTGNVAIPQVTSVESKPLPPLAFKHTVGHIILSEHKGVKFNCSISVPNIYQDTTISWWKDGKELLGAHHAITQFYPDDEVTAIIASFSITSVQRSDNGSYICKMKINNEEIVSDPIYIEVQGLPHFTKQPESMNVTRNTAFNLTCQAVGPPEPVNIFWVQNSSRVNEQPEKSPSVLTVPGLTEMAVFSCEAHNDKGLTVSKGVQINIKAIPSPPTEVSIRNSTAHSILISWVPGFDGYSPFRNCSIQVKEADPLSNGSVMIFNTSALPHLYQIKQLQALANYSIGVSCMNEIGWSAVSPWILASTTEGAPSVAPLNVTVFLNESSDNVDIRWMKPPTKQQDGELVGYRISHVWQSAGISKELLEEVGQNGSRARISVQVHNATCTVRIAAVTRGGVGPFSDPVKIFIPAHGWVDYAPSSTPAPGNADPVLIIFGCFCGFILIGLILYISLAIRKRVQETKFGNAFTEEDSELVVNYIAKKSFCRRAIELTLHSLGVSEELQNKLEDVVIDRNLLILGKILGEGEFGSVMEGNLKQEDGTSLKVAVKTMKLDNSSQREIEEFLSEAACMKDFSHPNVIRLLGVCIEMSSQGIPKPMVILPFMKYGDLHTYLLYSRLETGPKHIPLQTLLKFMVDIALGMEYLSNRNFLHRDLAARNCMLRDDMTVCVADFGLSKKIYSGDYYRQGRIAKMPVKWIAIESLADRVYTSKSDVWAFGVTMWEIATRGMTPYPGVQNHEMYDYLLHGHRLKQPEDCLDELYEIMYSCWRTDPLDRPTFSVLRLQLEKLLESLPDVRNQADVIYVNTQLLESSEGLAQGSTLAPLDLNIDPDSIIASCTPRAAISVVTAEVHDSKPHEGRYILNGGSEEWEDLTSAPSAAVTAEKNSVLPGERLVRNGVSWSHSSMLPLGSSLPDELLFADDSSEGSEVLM

[6] = biological target: Serine/threonine-protein kinase Nek7 (Homo sapiens, UniProt Q8TDX7)
Chain of Serine/threonine-protein kinase Nek7 (Q8TDX7 whole entry): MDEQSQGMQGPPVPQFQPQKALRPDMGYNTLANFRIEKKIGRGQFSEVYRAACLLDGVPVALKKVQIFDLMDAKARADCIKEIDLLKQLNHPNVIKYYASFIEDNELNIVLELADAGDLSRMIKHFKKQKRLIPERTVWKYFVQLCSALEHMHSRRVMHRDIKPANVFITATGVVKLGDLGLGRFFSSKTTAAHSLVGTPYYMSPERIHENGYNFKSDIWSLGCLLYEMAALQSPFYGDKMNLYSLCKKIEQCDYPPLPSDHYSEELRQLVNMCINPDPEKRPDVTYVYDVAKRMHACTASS

[7] = biological target: Phosphatidylethanolamine-binding protein 1 (Homo sapiens, UniProt P30086)
Chain of Phosphatidylethanolamine-binding protein 1 (P30086 whole entry): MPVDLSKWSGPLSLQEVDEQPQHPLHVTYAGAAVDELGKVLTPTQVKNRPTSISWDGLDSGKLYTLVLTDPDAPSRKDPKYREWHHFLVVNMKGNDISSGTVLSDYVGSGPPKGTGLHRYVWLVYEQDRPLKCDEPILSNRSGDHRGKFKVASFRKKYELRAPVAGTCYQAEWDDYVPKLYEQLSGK

[8] = biological target: Serine/threonine-protein kinase PLK1 (Homo sapiens, UniProt P53350)
Chain of Serine/threonine-protein kinase PLK1 (P53350 whole entry): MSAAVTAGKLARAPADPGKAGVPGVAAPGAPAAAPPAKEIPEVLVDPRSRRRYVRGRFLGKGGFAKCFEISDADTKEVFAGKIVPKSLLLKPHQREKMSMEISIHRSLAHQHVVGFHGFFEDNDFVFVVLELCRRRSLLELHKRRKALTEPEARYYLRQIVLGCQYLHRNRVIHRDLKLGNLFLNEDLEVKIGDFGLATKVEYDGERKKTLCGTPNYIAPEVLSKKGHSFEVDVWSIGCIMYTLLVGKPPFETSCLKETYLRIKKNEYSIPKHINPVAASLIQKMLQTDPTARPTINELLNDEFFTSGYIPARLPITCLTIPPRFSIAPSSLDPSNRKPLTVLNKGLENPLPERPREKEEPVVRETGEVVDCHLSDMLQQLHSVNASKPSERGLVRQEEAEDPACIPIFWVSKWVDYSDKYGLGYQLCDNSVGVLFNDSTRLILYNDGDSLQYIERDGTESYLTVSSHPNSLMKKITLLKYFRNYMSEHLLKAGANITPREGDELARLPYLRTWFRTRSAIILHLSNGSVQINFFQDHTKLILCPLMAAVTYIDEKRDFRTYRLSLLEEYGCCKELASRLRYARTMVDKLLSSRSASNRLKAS

[9] = biological target: Rho-associated protein kinase 1 (Homo sapiens, UniProt Q13464)
Chain of Rho-associated protein kinase 1 (Q13464 whole entry): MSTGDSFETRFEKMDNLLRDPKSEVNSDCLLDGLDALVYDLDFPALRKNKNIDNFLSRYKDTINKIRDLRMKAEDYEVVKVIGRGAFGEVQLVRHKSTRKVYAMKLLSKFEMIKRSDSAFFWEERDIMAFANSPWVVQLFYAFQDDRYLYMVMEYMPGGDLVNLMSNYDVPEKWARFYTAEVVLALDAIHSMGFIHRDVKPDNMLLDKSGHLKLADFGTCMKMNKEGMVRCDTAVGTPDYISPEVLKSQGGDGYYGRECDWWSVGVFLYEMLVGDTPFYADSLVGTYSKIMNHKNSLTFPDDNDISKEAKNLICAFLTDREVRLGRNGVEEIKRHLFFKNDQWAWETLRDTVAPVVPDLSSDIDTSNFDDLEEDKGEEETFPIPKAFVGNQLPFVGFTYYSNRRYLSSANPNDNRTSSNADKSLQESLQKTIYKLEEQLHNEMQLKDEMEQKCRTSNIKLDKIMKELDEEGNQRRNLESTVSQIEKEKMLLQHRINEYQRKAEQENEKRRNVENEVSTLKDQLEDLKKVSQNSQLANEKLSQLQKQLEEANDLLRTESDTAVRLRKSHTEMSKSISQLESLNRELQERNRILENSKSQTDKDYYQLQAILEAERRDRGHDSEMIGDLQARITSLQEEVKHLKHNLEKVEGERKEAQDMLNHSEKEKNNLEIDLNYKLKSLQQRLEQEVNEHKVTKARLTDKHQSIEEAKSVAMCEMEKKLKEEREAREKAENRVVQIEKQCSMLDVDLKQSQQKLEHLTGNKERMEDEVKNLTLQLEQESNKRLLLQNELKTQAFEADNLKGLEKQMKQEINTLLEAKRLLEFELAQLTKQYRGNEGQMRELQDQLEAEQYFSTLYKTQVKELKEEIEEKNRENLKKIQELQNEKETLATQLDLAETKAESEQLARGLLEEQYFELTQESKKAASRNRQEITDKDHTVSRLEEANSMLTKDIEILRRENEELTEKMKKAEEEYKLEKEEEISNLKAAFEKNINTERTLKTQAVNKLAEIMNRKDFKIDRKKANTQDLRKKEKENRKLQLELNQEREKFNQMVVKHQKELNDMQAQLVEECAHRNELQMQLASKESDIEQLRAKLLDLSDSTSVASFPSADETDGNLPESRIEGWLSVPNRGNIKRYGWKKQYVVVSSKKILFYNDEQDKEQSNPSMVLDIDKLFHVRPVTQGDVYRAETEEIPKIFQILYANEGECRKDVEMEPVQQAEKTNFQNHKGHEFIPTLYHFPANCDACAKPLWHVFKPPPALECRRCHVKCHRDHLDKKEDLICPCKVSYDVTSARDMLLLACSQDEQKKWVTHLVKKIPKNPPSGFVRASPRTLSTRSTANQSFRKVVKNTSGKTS

[10] = biological target: Serine/threonine-protein kinase 38-like (Homo sapiens, UniProt Q9Y2H1)
Chain of Serine/threonine-protein kinase 38-like (Q9Y2H1 whole entry): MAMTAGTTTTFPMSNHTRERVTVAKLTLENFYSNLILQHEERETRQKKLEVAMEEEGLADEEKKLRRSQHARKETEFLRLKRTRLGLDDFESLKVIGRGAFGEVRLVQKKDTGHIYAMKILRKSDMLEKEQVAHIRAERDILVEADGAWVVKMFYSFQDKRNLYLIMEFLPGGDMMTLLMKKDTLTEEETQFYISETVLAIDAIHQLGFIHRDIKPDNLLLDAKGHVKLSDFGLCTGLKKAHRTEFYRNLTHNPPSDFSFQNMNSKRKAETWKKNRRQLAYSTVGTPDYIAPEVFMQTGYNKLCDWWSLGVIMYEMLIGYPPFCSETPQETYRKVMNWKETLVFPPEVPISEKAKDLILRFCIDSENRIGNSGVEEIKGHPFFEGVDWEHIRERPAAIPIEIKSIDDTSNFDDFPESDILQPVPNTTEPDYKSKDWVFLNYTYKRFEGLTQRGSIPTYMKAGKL

[11] = biological target: Dual specificity protein kinase CLK4 (Homo sapiens, UniProt Q9HAZ1)
[12] = biological target: Choline-phosphate cytidylyltransferase A (Homo sapiens, UniProt P49585)
[13] = biological target: Serine/threonine-protein kinase 24 (Homo sapiens, UniProt Q9Y6E0)
[14] = biological target: Dual specificity protein kinase CLK3 (Homo sapiens, UniProt P49761); format: subcellular, K-562, COLO 205, SK-N-BE(2) and MV-4-11, Cell lysate; conditions: read-out: Kd apparent
Chain of Dual specificity protein kinase CLK3 (P49761 whole entry): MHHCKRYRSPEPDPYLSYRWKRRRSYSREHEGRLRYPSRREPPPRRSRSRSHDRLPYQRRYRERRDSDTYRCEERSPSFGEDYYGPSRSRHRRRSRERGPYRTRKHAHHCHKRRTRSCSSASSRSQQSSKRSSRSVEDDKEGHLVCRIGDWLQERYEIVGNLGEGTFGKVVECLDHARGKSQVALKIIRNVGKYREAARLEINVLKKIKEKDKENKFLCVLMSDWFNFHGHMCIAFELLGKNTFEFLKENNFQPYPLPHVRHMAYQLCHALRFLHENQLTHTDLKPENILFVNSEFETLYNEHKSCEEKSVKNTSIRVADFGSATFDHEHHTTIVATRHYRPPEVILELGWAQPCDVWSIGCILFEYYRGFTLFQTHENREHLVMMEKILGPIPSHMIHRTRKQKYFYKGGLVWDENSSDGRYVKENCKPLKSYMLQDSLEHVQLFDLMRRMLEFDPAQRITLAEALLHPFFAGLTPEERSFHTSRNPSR

[15] = biological target: Dual specificity testis-specific protein kinase 2 (Homo sapiens, UniProt Q96S53)
Chain of Dual specificity testis-specific protein kinase 2 (Q96S53 whole entry): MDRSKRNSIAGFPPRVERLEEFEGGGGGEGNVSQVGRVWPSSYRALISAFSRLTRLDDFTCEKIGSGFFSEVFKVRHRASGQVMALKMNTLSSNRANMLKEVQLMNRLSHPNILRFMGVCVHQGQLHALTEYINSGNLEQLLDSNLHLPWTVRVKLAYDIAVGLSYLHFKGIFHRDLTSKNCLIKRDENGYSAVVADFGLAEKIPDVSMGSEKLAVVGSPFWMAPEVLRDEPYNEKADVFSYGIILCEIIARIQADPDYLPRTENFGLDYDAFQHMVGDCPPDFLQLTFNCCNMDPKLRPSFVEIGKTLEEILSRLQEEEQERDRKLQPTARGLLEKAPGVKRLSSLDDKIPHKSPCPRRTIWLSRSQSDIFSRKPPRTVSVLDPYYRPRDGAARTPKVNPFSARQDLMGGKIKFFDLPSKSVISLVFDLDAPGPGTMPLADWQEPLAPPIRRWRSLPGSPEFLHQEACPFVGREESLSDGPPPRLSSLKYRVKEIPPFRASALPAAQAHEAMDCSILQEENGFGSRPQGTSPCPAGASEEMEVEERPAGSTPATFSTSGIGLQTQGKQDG

UMP-CMP kinase = biological target: T3, UMP-CMP kinase (Homo sapiens, UniProt P30085)
T3 sequence (P30085 whole entry): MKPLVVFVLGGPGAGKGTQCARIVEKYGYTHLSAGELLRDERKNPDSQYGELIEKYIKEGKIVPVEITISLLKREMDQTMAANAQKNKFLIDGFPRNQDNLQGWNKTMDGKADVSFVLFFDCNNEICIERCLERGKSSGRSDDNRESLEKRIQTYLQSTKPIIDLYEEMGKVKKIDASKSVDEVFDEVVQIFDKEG
Also: in the data inactive means no Kd found up to 30 µM.

Chain of Serine/threonine-protein kinase B-raf (P15056 whole entry): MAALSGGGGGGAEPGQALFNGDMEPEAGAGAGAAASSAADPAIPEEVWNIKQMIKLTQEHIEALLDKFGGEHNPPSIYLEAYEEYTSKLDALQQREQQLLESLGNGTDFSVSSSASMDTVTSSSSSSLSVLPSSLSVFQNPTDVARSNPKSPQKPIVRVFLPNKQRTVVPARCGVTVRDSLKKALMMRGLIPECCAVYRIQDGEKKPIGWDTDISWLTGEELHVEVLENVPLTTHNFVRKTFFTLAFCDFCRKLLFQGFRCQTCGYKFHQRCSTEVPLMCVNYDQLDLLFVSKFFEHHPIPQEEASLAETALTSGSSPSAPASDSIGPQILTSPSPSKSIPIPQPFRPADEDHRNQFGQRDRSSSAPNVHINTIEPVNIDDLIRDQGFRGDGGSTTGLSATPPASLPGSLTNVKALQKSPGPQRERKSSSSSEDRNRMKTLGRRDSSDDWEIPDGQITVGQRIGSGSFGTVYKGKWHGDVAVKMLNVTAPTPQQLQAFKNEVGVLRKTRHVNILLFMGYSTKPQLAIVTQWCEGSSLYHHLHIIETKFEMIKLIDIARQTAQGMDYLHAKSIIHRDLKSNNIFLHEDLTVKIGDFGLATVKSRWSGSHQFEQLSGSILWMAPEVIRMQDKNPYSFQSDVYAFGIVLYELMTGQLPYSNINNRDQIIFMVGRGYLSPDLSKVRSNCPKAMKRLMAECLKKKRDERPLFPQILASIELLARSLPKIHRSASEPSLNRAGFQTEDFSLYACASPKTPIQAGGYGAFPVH

SMILES	Kd [1]	Kd [2]	Kd [3]	Kd [4]	Kd [5]	Kd [6]	Kd [7]	Kd [8]	Kd [9]	Kd [10]	Kd [11]	Kd [12]	Kd [13]	Kd [14]	Kd [15]	Kd (UMP-CMP kinase)
Cc1cc(Nc2ncc(Cl)c(Nc3ccccc3S(=O)(=O)C(C)C)n2)c(OC(C)C)cc1C1CCNCC1 [CERITINIB]	> 30 µM (inactive)	> 30 µM (inactive)	> 30 µM (inactive)	> 30 µM (inactive)	> 30 µM (inactive)	> 30 µM (inactive)	> 30 µM (inactive)	> 30 µM (inactive)	> 30 µM (inactive)	> 30 µM (inactive)	–	–	–	–	–	–
C[C@@H](N)c1ccc(C(=O)Nc2ccnc3[nH]ccc23)cc1 [Y-39983]	–	> 30 µM (inactive)	> 30 µM (inactive)	–	–	–	> 30 µM (inactive)	> 30 µM (inactive)	–	> 30 µM (inactive)	> 30 µM (inactive)	> 30 µM (inactive)	> 30 µM (inactive)	–	–	–
O=C(Nc1cc(C(F)(F)F)cc(C(F)(F)F)c1)c1cc(Cl)ccc1O [IMD-0354]	> 30 µM (inactive)	> 30 µM (inactive)	> 30 µM (inactive)	> 30 µM (inactive)	> 30 µM (inactive)	> 30 µM (inactive)	> 30 µM (inactive)	–	–	> 30 µM (inactive)	–	> 30 µM (inactive)	> 30 µM (inactive)	> 30 µM (inactive)	–	–
CCS(=O)(=O)c1cccc(-c2cc(C(=O)NC3CCN(C)CC3)c(C)c3[nH]c4ncc(C)cc4c23)c1 [TAK-901]	–	–	–	–	> 30 µM (inactive)	–	> 30 µM (inactive)	–	> 30 µM (inactive)	> 30 µM (inactive)	–	–	> 30 µM (inactive)	–	> 30 µM (inactive)	–
O=C(Cc1ccc(-c2ccc(OCCN3CCOCC3)cc2)cn1)NCc1ccccc1 [TIRBANIBULIN]	> 30 µM (inactive)	–	> 30 µM (inactive)	> 30 µM (inactive)	–	> 30 µM (inactive)	> 30 µM (inactive)	> 30 µM (inactive)	–	> 30 µM (inactive)	> 30 µM (inactive)	> 30 µM (inactive)	> 30 µM (inactive)	> 30 µM (inactive)	> 30 µM (inactive)	> 30 µM (inactive)
CO[C@H]1C[C@@H]2CC[C@@H](C)[C@@](O)(O2)C(=O)C(=O)N2CCCC[C@H]2C(=O)O[C@H]([C@H](C)C[C@@H]2CC[C@@H](OP(C)(C)=O)[C@H](OC)C2)CC(=O)[C@H](C)/C=C(\C)[C@@H](O)[C@@H](OC)C(=O)[C@H](C)C[C@H](C)/C=C/C=C/C=C/1C [RIDAFOROLIMUS]	> 30 µM (inactive)	–	> 30 µM (inactive)	–	> 30 µM (inactive)	> 30 µM (inactive)	> 30 µM (inactive)	–	> 30 µM (inactive)	> 30 µM (inactive)	> 30 µM (inactive)	–	> 30 µM (inactive)	> 30 µM (inactive)	> 30 µM (inactive)	–
CCCCCCCCCCCCCCCCCCOP(=O)([O-])OC1CC[N+](C)(C)CC1 [PERIFOSINE]	–	–	> 30 µM (inactive)	> 30 µM (inactive)	–	–	> 30 µM (inactive)	–	> 30 µM (inactive)	> 30 µM (inactive)	–	> 30 µM (inactive)	–	–	–	> 30 µM (inactive)
COc1ncc(-c2ccc3nccc(-c4ccnnc4)c3c2)cc1NS(=O)(=O)c1ccc(F)cc1F [OMIPALISIB]	> 30 µM (inactive)	> 30 µM (inactive)	–	–	–	> 30 µM (inactive)	> 30 µM (inactive)	> 30 µM (inactive)	> 30 µM (inactive)	> 30 µM (inactive)	> 30 µM (inactive)	–	> 30 µM (inactive)	–	–	> 30 µM (inactive)
O=C(Nc1nc2cccc(-c3ccc(CN4CCS(=O)(=O)CC4)cc3)n2n1)C1CC1 [FILGOTINIB]	> 30 µM (inactive)	> 30 µM (inactive)	> 30 µM (inactive)	–	–	> 30 µM (inactive)	> 30 µM (inactive)	> 30 µM (inactive)	> 30 µM (inactive)	> 30 µM (inactive)	> 30 µM (inactive)	> 30 µM (inactive)	> 30 µM (inactive)	–	–	> 30 µM (inactive)
Cc1nc(Nc2n[nH]c3c2CN(C(=O)N[C@H](CN(C)C)c2ccccc2)C3(C)C)c2sccc2n1 [PF-03758309]	> 30 µM (inactive)	> 30 µM (inactive)	> 30 µM (inactive)	> 30 µM (inactive)	–	–	> 30 µM (inactive)	> 30 µM (inactive)	> 30 µM (inactive)	> 30 µM (inactive)	0.013 µM (active)	–	–	> 30 µM (inactive)	> 30 µM (inactive)	> 30 µM (inactive)
Nc1ncnc2c1c(-c1cccc(OCc3ccccc3)c1)cn2[C@H]1C[C@@H](CN2CCC2)C1 [AEW-541]	–	0.005 µM	> 30 µM (inactive)	> 30 µM (inactive)	> 30 µM (inactive)	> 30 µM (inactive)	–	> 30 µM (inactive)	> 30 µM (inactive)	> 30 µM (inactive)	–	–	–	–	–	–
CCOc1cc2ncc(C#N)c(Nc3ccc(F)c(Cl)c3)c2cc1NC(=O)/C=C/CN(C)C [PELITINIB]	> 30 µM (inactive)	–	> 30 µM (inactive)	> 30 µM (inactive)	> 30 µM (inactive)	> 30 µM (inactive)	> 30 µM (inactive)	> 30 µM (inactive)	> 30 µM (inactive)	> 30 µM (inactive)	–	–	–	–	–	> 30 µM (inactive)
COc1c(OCCCN2CCOCC2)ccc2c1N=C(NC(=O)c1cnc(N)nc1)N1CCN=C21 [COPANLISIB]	> 30 µM (inactive)	> 30 µM (inactive)	> 30 µM (inactive)	> 30 µM (inactive)	> 30 µM (inactive)	–	> 30 µM (inactive)	> 30 µM (inactive)	> 30 µM (inactive)	> 30 µM (inactive)	> 30 µM (inactive)	–	> 30 µM (inactive)	> 30 µM (inactive)	–	–
FC(F)(F)c1ccc(/C=C/c2nc(COc3ccc(CCCCn4ccnn4)cc3)co2)cc1 [MUBRITINIB]	> 30 µM (inactive)	> 30 µM (inactive)	> 30 µM (inactive)	> 30 µM (inactive)	> 30 µM (inactive)	–	> 30 µM (inactive)	> 30 µM (inactive)	> 30 µM (inactive)	> 30 µM (inactive)	> 30 µM (inactive)	–	> 30 µM (inactive)	–	> 30 µM (inactive)	–

From ChEMBL document CHEMBL3991601, “The target landscape of clinical kinase drugs” (Science, 2017)
